Test systems include SN12C; NCI-H23; KM12; COLO 205; RPMI-8226; Malme-3M; U-251; NCI-H460; SR; OVCAR-4; LOX IMVI; SK-MEL-2; HOP-62; MDA-MB-231; SNB-19; MCF7; SF-539; OVCAR-5; UACC-62; RXF 393.
What all share (experiment): NCI anticancer screen, dose series, 48 h

Each structure is given as a SMILES string.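 Five concentrations, 48 hours, 96-well plates. Abbreviation: GI50, concentration required for 50% inhibition of growth.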 Calls of active or inactive are those of the source. Cut-off read from the data, not from the text of the source: active = GI50 up to about 1.1 µM and inactive = higher.

For the compound `CC1CNC(NS(=O)(=O)c2cc(C(=O)Nc3ccc(Cl)cc3)c(Cl)cc2S)=NN1` (configuration not stated), the GI50 in the experiment on SN12C was 38.8 µM (inactive); in the experiment with NCI-H23, 27.4 µM (inactive); in the experiment with KM12, 28.1 µM (inactive); in the experiment on COLO 205 it was 41.7 µM (inactive); with RPMI-8226, 28.9 µM (inactive); with Malme-3M, 17.9 µM (inactive). Besides, the GI50 in the experiment on U-251 is 37.2 µM (inactive); with NCI-H460 it was 38.5 µM (inactive); in the experiment with SR, 27.2 µM (inactive); with OVCAR-4, 28.6 µM (inactive); with LOX IMVI, 27.4 µM (inactive); in the experiment with SK-MEL-2, 28.9 µM (inactive). Also, the GI50 in the experiment with HOP-62 is 41.5 µM (inactive); with MDA-MB-231, 37.8 µM (inactive); with SNB-19, 35.1 µM (inactive); in the experiment on MCF7, 45 µM (inactive); in the experiment with SF-539 it was 30.8 µM (inactive); in the experiment with OVCAR-5, 38.5 µM (inactive). For the same compound, in the experiment with UACC-62, the GI50 is 29.2 µM (inactive).
Take `COc1ccc(OC/C(N)=N/NC(=O)c2ccncc2)cc1`: the GI50 in the experiment on SN12C, in the experiment on NCI-H23, in the experiment with KM12, in the experiment with COLO 205, in the experiment with RPMI-8226 and in the experiment with Malme-3M was > 100 µM (inactive) each time. The GI50 in the experiment on U-251, in the experiment with NCI-H460, in the experiment on OVCAR-4, in the experiment on RXF 393, in the experiment with LOX IMVI and with SK-MEL-2 was > 100 µM (inactive) each time. Also, the GI50 in the experiment on HOP-62, in the experiment with MDA-MB-231, in the experiment on SNB-19, in the experiment on MCF7, with SF-539 and in the experiment with OVCAR-5 was > 100 µM (inactive) throughout. Moreover, the GI50 in the experiment on UACC-62 is > 100 µM (inactive).
In the case of `Nn1c(=O)[nH]c2ncn(Cc3ccccc3)c2c1=O`, the GI50 in the experiment with SN12C, with NCI-H23, in the experiment with KM12, in the experiment with COLO 205, in the experiment with Malme-3M and in the experiment with U-251 was > 100 µM (inactive) each time. Further, the GI50 with NCI-H460, with SR, in the experiment with OVCAR-4, in the experiment on RXF 393, with SK-MEL-2 and in the experiment with HOP-62 was > 100 µM (inactive) in each case. Further, the GI50 in the experiment on MDA-MB-231, in the experiment on SNB-19, with MCF7, in the experiment on SF-539, in the experiment on OVCAR-5 and in the experiment with UACC-62 was > 100 µM (inactive) each time.
As for `CCOC(=O)/C=C(\C(=O)OCC)n1cc(Cl)c(=O)n(CC(=O)OCC)c1=O`, the GI50 in the experiment on SN12C is 14.5 µM (inactive); in the experiment on NCI-H23 it was 14.7 µM (inactive); in the experiment on KM12, 18.2 µM (inactive); with COLO 205, 0.697 µM (active); in the experiment with RPMI-8226, 1.74 µM (inactive); in the experiment with Malme-3M, 1.57 µM (inactive). Further, the GI50 in the experiment with U-251 was 15.6 µM (inactive); in the experiment with NCI-H460 it was 23.4 µM (inactive); in the experiment on OVCAR-4 it was 15.2 µM (inactive); in the experiment on RXF 393, 1.69 µM (inactive); in the experiment with LOX IMVI, 4.99 µM (inactive); in the experiment on SK-MEL-2 it was 16.2 µM (inactive). Besides, the GI50 was 18 µM (inactive) in the experiment with HOP-62; 16 µM (inactive) with MDA-MB-231; 18.8 µM (inactive) in the experiment with SNB-19; 2.62 µM (inactive) with MCF7; 14 µM (inactive) in the experiment on SF-539; 18.1 µM (inactive) in the experiment on OVCAR-5. For the same compound, the GI50 with UACC-62 was 10.9 µM (inactive).
In the case of `Nc1nc(N)nc(-c2cnccn2)n1`, the GI50 in the experiment with SN12C, in the experiment on NCI-H23, with KM12, with COLO 205, with Malme-3M and with U-251 was > 100 µM (inactive) in each case. Also, the GI50 in the experiment with NCI-H460, in the experiment on SR, with RXF 393, with LOX IMVI, with SK-MEL-2 and in the experiment on HOP-62 was > 100 µM (inactive) each time. Moreover, the GI50 in the experiment on MDA-MB-231 is 53 µM (inactive); in the experiment on SNB-19, > 100 µM (inactive); in the experiment on MCF7, > 100 µM (inactive); with SF-539, > 100 µM (inactive); with OVCAR-5 it was 57.1 µM (inactive); with UACC-62 it was > 100 µM (inactive).
With `CCC1(O)CC(OC2CC(N(C)C)C(OC3CC(O)C(OC4CCC(=O)C(C)O4)C(C)O3)C(C)O2)c2c(O)c3c(c(O)c2C1C(=O)OC)C(=O)c1cccc(O)c1C3=O` (configuration not stated), the GI50 is 0.00966 µM (active) with SN12C; 0.00589 µM (active) with NCI-H23; 0.00344 µM (active) in the experiment on KM12; 0.00327 µM (active) with COLO 205; 0.00181 µM (active) in the experiment with RPMI-8226; 0.0125 µM (active) in the experiment with Malme-3M. In addition, the GI50 with U-251 was 0.0028 µM (active); with NCI-H460, 0.000434 µM (active); with SR it was 0.00897 µM (active); in the experiment on OVCAR-4, 0.01 µM (active); with LOX IMVI, 0.00184 µM (active); in the experiment with SK-MEL-2, 0.0103 µM (active). The GI50 with HOP-62 was 0.0106 µM (active); with MDA-MB-231 it was 0.0181 µM (active); in the experiment with SNB-19 it was 0.00457 µM (active); in the experiment on MCF7 it was 0.01 µM (active); with SF-539, 0.0101 µM (active); with OVCAR-5 it was 0.00575 µM (active). Further, the GI50 in the experiment on UACC-62 is 0.0101 µM (active).
Consider `Nc1nc(Nc2ccc(Cl)cc2)sc1C(=O)c1cc2ccccc2oc1=O`, for which the GI50 was 14.2 µM (inactive) in the experiment with SN12C; 2.93 µM (inactive) in the experiment on NCI-H23; 35.2 µM (inactive) in the experiment with KM12; 59.6 µM (inactive) in the experiment with COLO 205; 29.4 µM (inactive) in the experiment on RPMI-8226; 19.1 µM (inactive) with Malme-3M. For the same compound, the GI50 in the experiment on U-251 was 18.8 µM (inactive); in the experiment on NCI-H460, 31 µM (inactive); in the experiment on OVCAR-4, 27.7 µM (inactive); in the experiment on RXF 393, 82.6 µM (inactive); in the experiment on LOX IMVI, 23.8 µM (inactive); in the experiment on SK-MEL-2, 7.94 µM (inactive). The GI50 in the experiment with HOP-62 is 12.9 µM (inactive); in the experiment with MDA-MB-231 it was 37.8 µM (inactive); with SNB-19, > 100 µM (inactive); in the experiment with MCF7, 25 µM (inactive); in the experiment on SF-539 it was 71.6 µM (inactive); in the experiment with OVCAR-5, > 100 µM (inactive). Besides, the GI50 in the experiment on UACC-62 is 55.8 µM (inactive).
In the case of `O=C1C[C@H](c2ccccc2)O[C@@H](c2ccccc2)C1`, the GI50 in the experiment with SN12C, in the experiment on NCI-H23, in the experiment with KM12, in the experiment with COLO 205, in the experiment with RPMI-8226 and in the experiment with Malme-3M was > 100 µM (inactive) throughout. The GI50 with U-251, with NCI-H460, in the experiment with OVCAR-4, with RXF 393, with LOX IMVI and in the experiment on SK-MEL-2 was > 100 µM (inactive) in each case. Also, the GI50 in the experiment with HOP-62 is > 100 µM (inactive); in the experiment with MDA-MB-231, > 100 µM (inactive); in the experiment on SNB-19, > 100 µM (inactive); with MCF7 it was 74.3 µM (inactive); in the experiment with SF-539, > 100 µM (inactive); with OVCAR-5 it was > 100 µM (inactive). The GI50 with UACC-62 was > 100 µM (inactive).
For `O=C(O)c1cnc2[nH]ccn2c1=O`, the GI50 in the experiment on SN12C, in the experiment on NCI-H23, in the experiment on COLO 205, in the experiment on RPMI-8226, with Malme-3M and in the experiment with U-251 was > 100 µM (inactive) each time. Moreover, the GI50 in the experiment with NCI-H460, in the experiment on SR, in the experiment with OVCAR-4, in the experiment on HOP-62, in the experiment with MDA-MB-231 and with SNB-19 was > 100 µM (inactive) in each case. In addition, the GI50 with MCF7, in the experiment with OVCAR-5 and in the experiment on UACC-62 was > 100 µM (inactive) throughout.
For the compound `O=C(O)COc1cc(-c2ccccc2)nc2ccccc12`, the GI50 was > 100 µM (inactive) with SN12C; 77.6 µM (inactive) in the experiment with NCI-H23; 50.1 µM (inactive) with KM12; 51.1 µM (inactive) with COLO 205; 86.7 µM (inactive) in the experiment with RPMI-8226; > 100 µM (inactive) in the experiment with Malme-3M. The GI50 in the experiment on U-251 was 71.9 µM (inactive); with NCI-H460 it was 48 µM (inactive); in the experiment with SR it was 63 µM (inactive); in the experiment on OVCAR-4 it was 77.1 µM (inactive); in the experiment with LOX IMVI it was 99.8 µM (inactive); in the experiment on SK-MEL-2, > 100 µM (inactive). The GI50 in the experiment on HOP-62 was 95.9 µM (inactive); in the experiment on MDA-MB-231 it was > 100 µM (inactive); in the experiment with SNB-19, 98.4 µM (inactive); in the experiment on MCF7 it was 49 µM (inactive); with SF-539, 70.8 µM (inactive); with OVCAR-5, > 100 µM (inactive). For the same compound, the GI50 with UACC-62 is > 10 µM (inactive).
As to `COc1cc(C2CC(C)(N3CCOCC3)Oc3cc4c(cc32)OCO4)cc(OC)c1OC` (configuration not stated), the GI50 is 0.189 µM (active) with SN12C; 0.209 µM (active) with NCI-H23; 0.0634 µM (active) in the experiment on KM12; 0.845 µM (active) with COLO 205; 0.0263 µM (active) with RPMI-8226; 0.0726 µM (active) in the experiment on Malme-3M. The GI50 is 0.0577 µM (active) in the experiment with U-251; 0.156 µM (active) in the experiment with NCI-H460; 0.206 µM (active) with SR; 0.275 µM (active) with OVCAR-4; 0.136 µM (active) in the experiment with LOX IMVI; 0.27 µM (active) in the experiment on HOP-62. For the same compound, the GI50 was 0.0748 µM (active) in the experiment with MDA-MB-231; 0.589 µM (active) in the experiment on SNB-19; 0.458 µM (active) in the experiment on MCF7; 0.0619 µM (active) in the experiment with SF-539; > 100 µM (inactive) in the experiment on OVCAR-5; 0.139 µM (active) with UACC-62.

For the origin of these results see ChEMBL document CHEMBL1201862, “PubChem BioAssay data set” (2004).
